Results from the NIST ThermoML archive (doi:10.1021/je060271a).
± gives the expanded uncertainty stated by the source.

Conditions: 283.15 K, Liquid, Vibrating tube method

CCCCCC(=O)OCC(COC(=O)CCCCC)(COC(=O)CCCCC)COC(=O)CCCCC [pentaerythritol tetrahexanoate]
mass density (17954 kPa): 1014.2 ± 1.2 kg/m3 | mass density (17972 kPa): 1014.2 ± 1.2 kg/m3 | mass density (17987 kPa): 1014.3 ± 1.2 kg/m3 | mass density (18002 kPa): 1014.3 ± 1.2 kg/m3 | mass density (18020 kPa): 1014.4 ± 1.2 kg/m3 | mass density (18035 kPa): 1014.3 ± 1.2 kg/m3 | mass density (18050 kPa): 1014.4 ± 1.2 kg/m3 | mass density (18068 kPa): 1014.4 ± 1.2 kg/m3 | mass density (18083 kPa): 1014.3 ± 1.2 kg/m3 | mass density (18098 kPa): 1014.3 ± 1.2 kg/m3 | mass density (18116 kPa): 1014.5 ± 1.2 kg/m3 | mass density (18131 kPa): 1014.3 ± 1.2 kg/m3 | mass density (18146 kPa): 1014.4 ± 1.2 kg/m3 | mass density (18161 kPa): 1014.3 ± 1.2 kg/m3 | mass density (18179 kPa): 1014.4 ± 1.2 kg/m3 | mass density (18195 kPa): 1014.4 ± 1.2 kg/m3 | mass density (18210 kPa): 1014.5 ± 1.2 kg/m3 | mass density (18228 kPa): 1014.4 ± 1.2 kg/m3 | mass density (18243 kPa): 1014.5 ± 1.2 kg/m3 | mass density (18259 kPa): 1014.6 ± 1.2 kg/m3 | mass density (18277 kPa): 1014.5 ± 1.2 kg/m3 | mass density (18292 kPa): 1014.4 ± 1.2 kg/m3 | mass density (18308 kPa): 1014.5 ± 1.2 kg/m3 | mass density (18326 kPa): 1014.5 ± 1.2 kg/m3 | mass density (18341 kPa): 1014.6 ± 1.2 kg/m3 | mass density (18356 kPa): 1014.6 ± 1.2 kg/m3 | mass density (18375 kPa): 1014.5 ± 1.2 kg/m3 | mass density (18391 kPa): 1014.5 ± 1.2 kg/m3 | mass density (18407 kPa): 1014.6 ± 1.2 kg/m3 | mass density (18425 kPa): 1014.6 ± 1.2 kg/m3 | mass density (18441 kPa): 1014.6 ± 1.2 kg/m3 | mass density (18457 kPa): 1014.6 ± 1.2 kg/m3 | mass density (18472 kPa): 1014.5 ± 1.2 kg/m3 | mass density (18491 kPa): 1014.6 ± 1.2 kg/m3 | mass density (18506 kPa): 1014.6 ± 1.2 kg/m3 | mass density (18522 kPa): 1014.6 ± 1.2 kg/m3 | mass density (18541 kPa): 1014.5 ± 1.2 kg/m3 | mass density (18557 kPa): 1014.7 ± 1.2 kg/m3 | mass density (18576 kPa): 1014.6 ± 1.2 kg/m3 | mass density (18592 kPa): 1014.6 ± 1.2 kg/m3 | mass density (18608 kPa): 1014.7 ± 1.2 kg/m3 | mass density (18624 kPa): 1014.6 ± 1.2 kg/m3 | mass density (18643 kPa): 1014.6 ± 1.2 kg/m3 | mass density (18659 kPa): 1014.7 ± 1.2 kg/m3 | mass density (18676 kPa): 1014.7 ± 1.2 kg/m3 | mass density (18695 kPa): 1014.7 ± 1.2 kg/m3 | mass density (18711 kPa): 1014.7 ± 1.2 kg/m3 | mass density (18727 kPa): 1014.7 ± 1.2 kg/m3 | mass density (18746 kPa): 1014.7 ± 1.2 kg/m3 | mass density (18763 kPa): 1014.8 ± 1.2 kg/m3 | mass density (18779 kPa): 1014.7 ± 1.2 kg/m3 | mass density (18796 kPa): 1014.7 ± 1.2 kg/m3 | mass density (18815 kPa): 1014.9 ± 1.2 kg/m3 | mass density (18832 kPa): 1014.7 ± 1.2 kg/m3 | mass density (18848 kPa): 1014.9 ± 1.2 kg/m3 | mass density (18868 kPa): 1014.8 ± 1.2 kg/m3 | mass density (18884 kPa): 1014.9 ± 1.2 kg/m3 | mass density (18901 kPa): 1014.7 ± 1.2 kg/m3 | mass density (18917 kPa): 1014.9 ± 1.2 kg/m3 | mass density (18937 kPa): 1014.7 ± 1.2 kg/m3 | mass density (18954 kPa): 1014.9 ± 1.2 kg/m3 | mass density (18970 kPa): 1014.9 ± 1.2 kg/m3 | mass density (18990 kPa): 1014.8 ± 1.2 kg/m3 | mass density (19005 kPa): 1014.9 ± 1.2 kg/m3 | mass density (19024 kPa): 1014.9 ± 1.2 kg/m3 | mass density (19040 kPa): 1014.9 ± 1.2 kg/m3 | mass density (19057 kPa): 1015 ± 1.2 kg/m3 | mass density (19075 kPa): 1014.8 ± 1.2 kg/m3 | mass density (19091 kPa): 1014.9 ± 1.2 kg/m3 | mass density (19107 kPa): 1014.8 ± 1.2 kg/m3 | mass density (19126 kPa): 1015 ± 1.2 kg/m3 | mass density (19142 kPa): 1015 ± 1.2 kg/m3 | mass density (19161 kPa): 1015 ± 1.2 kg/m3 | mass density (19177 kPa): 1014.9 ± 1.2 kg/m3 | mass density (19193 kPa): 1015 ± 1.2 kg/m3 | mass density (19212 kPa): 1014.9 ± 1.2 kg/m3 | mass density (19228 kPa): 1014.9 ± 1.2 kg/m3 | mass density (19245 kPa): 1015.1 ± 1.2 kg/m3 | mass density (19264 kPa): 1015 ± 1.2 kg/m3 | mass density (19281 kPa): 1015.1 ± 1.2 kg/m3 | mass density (19297 kPa): 1014.9 ± 1.2 kg/m3 | mass density (19313 kPa): 1014.9 ± 1.2 kg/m3 | mass density (19333 kPa): 1014.9 ± 1.2 kg/m3 | mass density (19350 kPa): 1015 ± 1.2 kg/m3 | mass density (19366 kPa): 1015 ± 1.2 kg/m3 | mass density (19382 kPa): 1015.1 ± 1.2 kg/m3 | mass density (19402 kPa): 1015 ± 1.2 kg/m3 | mass density (19418 kPa): 1015.2 ± 1.2 kg/m3 | mass density (19438 kPa): 1015.1 ± 1.2 kg/m3 | mass density (19455 kPa): 1015.2 ± 1.2 kg/m3 | mass density (19471 kPa): 1015.1 ± 1.2 kg/m3 | mass density (19488 kPa): 1015.1 ± 1.2 kg/m3 | mass density (19509 kPa): 1015.1 ± 1.2 kg/m3 | mass density (19525 kPa): 1015.1 ± 1.2 kg/m3 | mass density (19542 kPa): 1015.1 ± 1.2 kg/m3 | mass density (19559 kPa): 1015.2 ± 1.2 kg/m3 | mass density (19579 kPa): 1015.2 ± 1.2 kg/m3 | mass density (19596 kPa): 1015.1 ± 1.2 kg/m3 | mass density (19616 kPa): 1015.1 ± 1.2 kg/m3 | mass density (19633 kPa): 1015.2 ± 1.2 kg/m3 | mass density (19649 kPa): 1015.3 ± 1.2 kg/m3 | mass density (19666 kPa): 1015.2 ± 1.2 kg/m3 | mass density (19686 kPa): 1015.3 ± 1.2 kg/m3 | mass density (19703 kPa): 1015.3 ± 1.2 kg/m3 | mass density (19720 kPa): 1015.3 ± 1.2 kg/m3 | mass density (19741 kPa): 1015.4 ± 1.2 kg/m3 | mass density (19758 kPa): 1015.3 ± 1.2 kg/m3 | mass density (19778 kPa): 1015.2 ± 1.2 kg/m3 | mass density (19796 kPa): 1015.3 ± 1.2 kg/m3 | mass density (19813 kPa): 1015.3 ± 1.2 kg/m3 | mass density (19830 kPa): 1015.3 ± 1.2 kg/m3 | mass density (19851 kPa): 1015.3 ± 1.2 kg/m3 | mass density (19868 kPa): 1015.3 ± 1.2 kg/m3 | mass density (19885 kPa): 1015.3 ± 1.2 kg/m3 | mass density (19906 kPa): 1015.4 ± 1.2 kg/m3 | mass density (19922 kPa): 1015.4 ± 1.2 kg/m3 | mass density (19941 kPa): 1015.3 ± 1.2 kg/m3 | mass density (19957 kPa): 1015.4 ± 1.2 kg/m3 | mass density (19973 kPa): 1015.4 ± 1.2 kg/m3 | mass density (19989 kPa): 1015.4 ± 1.2 kg/m3 | mass density (20008 kPa): 1015.2 ± 1.2 kg/m3 | mass density (20024 kPa): 1015.4 ± 1.2 kg/m3 | mass density (20040 kPa): 1015.4 ± 1.2 kg/m3 | mass density (20059 kPa): 1015.4 ± 1.2 kg/m3 | mass density (20075 kPa): 1015.4 ± 1.2 kg/m3 | mass density (20094 kPa): 1015.4 ± 1.2 kg/m3 | mass density (20110 kPa): 1015.4 ± 1.2 kg/m3 | mass density (20126 kPa): 1015.5 ± 1.2 kg/m3 | mass density (20143 kPa): 1015.5 ± 1.2 kg/m3 | mass density (20162 kPa): 1015.5 ± 1.2 kg/m3 | mass density (20178 kPa): 1015.4 ± 1.2 kg/m3 | mass density (20194 kPa): 1015.6 ± 1.2 kg/m3 | mass density (20213 kPa): 1015.5 ± 1.2 kg/m3 | mass density (20228 kPa): 1015.5 ± 1.2 kg/m3 | mass density (20246 kPa): 1015.4 ± 1.2 kg/m3 | mass density (20262 kPa): 1015.5 ± 1.2 kg/m3 | mass density (20277 kPa): 1015.6 ± 1.2 kg/m3 | mass density (20293 kPa): 1015.5 ± 1.2 kg/m3 | mass density (20312 kPa): 1015.6 ± 1.2 kg/m3 | mass density (20328 kPa): 1015.6 ± 1.2 kg/m3 | mass density (20343 kPa): 1015.5 ± 1.2 kg/m3 | mass density (20362 kPa): 1015.6 ± 1.2 kg/m3 | mass density (20378 kPa): 1015.6 ± 1.2 kg/m3 | mass density (20395 kPa): 1015.7 ± 1.2 kg/m3 | mass density (20410 kPa): 1015.6 ± 1.2 kg/m3
